From patent publication US20060276464A1, “Diarylsulfone sulfonamides and use thereof” (Wyeth, priority 2005, published 2006) come the findings set out here.

“And” between values parts separate entries of the source, which are not always exact repeats. Equal values may be shown once. Read-outs that look alike come from different tables or passages of the source.

As a reminder, the IC50 is the concentration that gives 50% inhibition. Read a high IC50 as weaker potency in that assay. In general, EC50 refers to the concentration that produces a half-maximal response. A higher EC50 goes with weaker potency.

The target in assay [1] is T1, SFRP-1 (Homo sapiens, UniProt Q8N474).
T1 sequence (Q8N474 32-314): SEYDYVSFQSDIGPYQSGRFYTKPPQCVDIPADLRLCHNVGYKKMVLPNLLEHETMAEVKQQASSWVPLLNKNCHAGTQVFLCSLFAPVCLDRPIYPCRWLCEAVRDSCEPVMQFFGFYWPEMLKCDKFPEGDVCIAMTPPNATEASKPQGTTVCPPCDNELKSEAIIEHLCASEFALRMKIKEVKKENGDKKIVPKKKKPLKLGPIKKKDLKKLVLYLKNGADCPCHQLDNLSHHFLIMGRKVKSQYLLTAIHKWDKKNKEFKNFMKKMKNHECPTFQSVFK
Kind of assay: Fluorescence polarization binding assay (competitive displacement of a probe compound from SFRP-1).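 Note: test compound competes with a fluorescent probe held by SFRP-1, seen as a drop in probe anisotropy after incubation in darkness, with anisotropy as function of rising compound dose.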 As to conditions: fluorescence anisotropy, 45 nM SFRP-1, 20 nM probe.

The target of assay [2] is T1, SFRP-1. Kind of assay: Cell-based assay for in vitro measurement of SFRP-1/SARP2 antagonist activity (U2OS cells co-transfected with 16x TCF-tk-Luciferase reporter, Wnt and hSFRP-1).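 For all read-outs here: U2OS cells co-transfected with a TCF-tk luciferase reporter, a Wnt vector, hSFRP-1 or empty vector and CMV-βgal, luciferase luminescence read in cell lysates alongside βgal activity.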 As to conditions: for fold induction at 15 µM / fold induction at 10 µM: U2OS; for fold induction at 15 µM: single dose, luciferase reporter; for fold induction at 10 µM: read-out: Fold Induction with SFRP-1, U2OS cells, single dose 10 μM, luciferase reporter, fold induction over SFRP-1 control. Background: Reporter assays use an easily measured gene product as a stand-in for the process of interest.

[3] abbreviates: read-out: Fold Induction with SFRP-1, Conc 15 μM, fold induction over SFRP-1 control, cells with SFRP-1.
Where [4] appears, read: read-out: Fold Induction without SFRP-1, Conc 15 μM, cells without SFRP-1 (specificity control).

In the case of `Cc1ccc(S(=O)(=O)c2ccc(F)cc2)cc1S(=O)(=O)NC1CCN(C(=O)N2CCOCC2)CC1` [Example 603, 5-[(4-fluorophenyl)sulfonyl]-2-methyl-N-[1-(morpholin-4-ylcarbonyl)piperidin-4-yl]benzenesulfonamide], at SFRP-1 [1], the concentration for half-maximal inhibition (IC50) is 8 µM. Moreover, the figures for the fold induction at 15 µM on SFRP-1 [2] (setting [3]) and on SFRP-1 [2] (setting [4]) were 2.4 and 0.9, respectively.
In the same order, the values of `Cc1cccc(S(=O)(=O)c2ccc(Cl)c(S(=O)(=O)NC3CCOCC3)c2)c1` [Example 604, 2-chloro-5-[(3-methylphenyl)sulfonyl]-N-(tetrahydro-2H-pyran-4-yl)benzenesulfonamide] are 7 µM, 2.2 and 1.1.
On SFRP-1 [1], `CNc1ccc(S(=O)(=O)c2ccc(C(C)C)c(S(=O)(=O)NCCc3ccccn3)c2)cc1Cl` [Example 605, 5-{[3-chloro-4-(methylamino)phenyl]sulfonyl}-2-isopropyl-N-(2-pyridin-2-ylethyl)benzenesulfonamide] gave an IC50 of 0.6 µM. In addition, the fold induction at 15 µM on SFRP-1 [2] (setting [3]) was found to be 3.2; at SFRP-1 [2] (setting [4]) it was 1.1.
In the same order, the values of `COc1cccc(S(=O)(=O)c2ccc(Cl)c(S(=O)(=O)NC3CCOCC3)c2)c1` [Example 606, 2-chloro-5-[(3-methoxyphenyl)sulfonyl]-N-(tetrahydro-2H-pyran-4-yl)benzenesulfonamide] are 8 µM, 1.9 and 1.
The matching figures for `Cn1ccc2cc(S(=O)(=O)c3ccc(Cl)c(S(=O)(=O)NC4CCOCC4)c3)ccc21` [Example 607, 2-chloro-5-[(1-methyl-1H-indol-5-yl)sulfonyl]-N-(tetrahydro-2H-pyran-4-yl)benzenesulfonamide]: 2 µM, 2.3 and 1.1.
In the same order, the values of `CC(C)c1ccc(S(=O)(=O)c2ccc(N3CCN(C(=O)OC(C)(C)C)CC3)cc2)cc1S(=O)(=O)NC1CCOCC1` [Example 625, tert-butyl 4-[4-({4-isopropyl-3-[(tetrahydro-2H-pyran-4-ylamino)sulfonyl]phenyl}sulfonyl)phenyl]piperazine-1-carboxylate] are 3 µM, 2.2 and 1.1.
Take `CC(C)c1ccc(S(=O)(=O)c2ccc(N3C[C@@H](C)N[C@@H](C)C3)cc2)cc1S(=O)(=O)NC1CCOCC1` [Example 626, 5-({4-cis-3,5-dimethylpiperazin-1-ylphenyl}sulfonyl)-2-isopropyl-N-(tetrahydro-2H-pyran-4-yl)benzenesulfonamide]: the IC50 at SFRP-1 [1] came out at 4 µM. The fold induction at 15 µM is 2.9 on SFRP-1 [2] (setting [3]) and 1.1 at SFRP-1 [2] (setting [4]).
As to `CC(C)c1ccc(S(=O)(=O)c2ccc(N3CCNCC3)cc2)cc1S(=O)(=O)NC1CCOCC1` [Example 628, 2-isopropyl-5-[(4-piperazin-1-ylphenyl)sulfonyl]-N-(tetrahydro-2H-pyran-4-yl)benzenesulfonamide], the IC50 on SFRP-1 [1] was determined as 3 µM. In addition, the values for the fold induction at 15 µM on SFRP-1 [2] (setting [3]) and on SFRP-1 [2] (setting [4]) were 3.2 and 1.1, respectively.
The matching figures for `O=S(=O)(NCCc1cccnc1)c1cc(S(=O)(=O)c2ccccc2)ccc1Cl` [Example 640, 2-chloro-5-(phenylsulfonyl)-N-(2-pyridin-3-ylethyl)benzenesulfonamide]: 1.2 µM, 3.5 and 1.2.
Consider `O=S(=O)(NCCc1ccncc1)c1cc(S(=O)(=O)c2ccccc2)ccc1Cl` [Example 641, 2-chloro-5-(phenylsulfonyl)-N-(2-pyridin-4-ylethyl)benzenesulfonamide], for which the IC50 on SFRP-1 [1] was determined as 1.1 µM. The fold induction at 15 µM at SFRP-1 [2] (setting [3]) stood at 3; at SFRP-1 [2] (setting [4]), 1.
The matching figures for `N#CCCNS(=O)(=O)c1cc(S(=O)(=O)c2ccccc2)ccc1Cl` [Example 643, 2-chloro-N-(2-cyanoethyl)-5-(phenylsulfonyl)benzenesulfonamide]: 2.4 µM, 3.2 and 1.
In the same order, the values of `O=C(N1CCC(NS(=O)(=O)c2cc(S(=O)(=O)c3ccccc3)ccc2Cl)CC1)C(F)(F)F` [Example 647, 2-chloro-5-(phenylsulfonyl)-N-[1-(trifluoroacetyl)piperidin-4-yl]benzenesulfonamide] are 1.4 µM, 3.9 and 1.1.
Compound `CC(C)(C)C(=O)N1CCC(NS(=O)(=O)c2cc(S(=O)(=O)c3ccccc3)ccc2Cl)CC1` [Example 648, 2-chloro-N-[1-(2,2-dimethylpropanoyl)piperidin-4-yl]-5-(phenylsulfonyl)benzenesulfonamide] showed an IC50 on SFRP-1 [1] of 5 µM. Besides, the fold induction at 15 µM at SFRP-1 [2] (setting [3]) amounted to 2.9; at SFRP-1 [2] (setting [4]), 1.1.
Take `CC(C)(C)NC(=O)N1CCC(NS(=O)(=O)c2cc(S(=O)(=O)c3ccccc3)ccc2Cl)CC1` [Example 649, N-(tert-butyl)-4-({[2-chloro-5-(phenylsulfonyl)phenyl]sulfonyl}amino)piperidine-1-carboxamide]: on SFRP-1 [1], the IC50 amounted to 1.6 µM. For the same compound, the results for the fold induction at 15 µM on SFRP-1 [2] (setting [3]) and at SFRP-1 [2] (setting [4]) were 3 and 1.1, respectively.
In the same order, the values of `O=C(N1CCOCC1)N1CCC(NS(=O)(=O)c2cc(S(=O)(=O)c3ccccc3)ccc2Cl)CC1` [Example 650, 2-chloro-N-[1-(morpholin-4-ylcarbonyl)piperidin-4-yl]-5-(phenylsulfonyl)benzenesulfonamide] are 10 µM, 3.4 and 1.1.
As for `N#CN1CCC(NS(=O)(=O)c2cc(S(=O)(=O)c3ccccc3)ccc2Cl)CC1` [Example 651, 2-chloro-N-(1-cyanopiperidin-4-yl)-5-(phenylsulfonyl)benzenesulfonamide], at SFRP-1 [1], the IC50 turned out to be 0.4 µM. Also, the fold induction at 15 µM at SFRP-1 [2] (setting [3]) came out at 2.9; on SFRP-1 [2] (setting [4]), 0.9.
On to `CC(C)c1ccc(S(=O)(=O)c2ccc(F)cc2)cc1S(=O)(=O)NCCc1ccc[n+]([O-])c1` [Example 652, 5-[(4-fluorophenyl)sulfonyl]-2-isopropyl-N-[2-(1-oxidopyridin-3-yl)ethyl]benzenesulfonamide], for which the IC50 on SFRP-1 [1] is 0.8 µM and 0.7 µM. In addition, the fold induction at 15 µM at SFRP-1 [2] (setting [3]) is 3.8; at SFRP-1 [2] (setting [4]), 1.
Compound `O=C(c1ccc(F)cc1)N1CCC(NS(=O)(=O)c2cc(S(=O)(=O)c3ccccc3)ccc2Cl)CC1` [Example 656, 2-chloro-N-[1-(4-fluorobenzoyl)piperidin-4-yl]-5-(phenylsulfonyl)benzenesulfonamide] yielded an IC50 at SFRP-1 [1] of 2.8 µM. Further, at SFRP-1 [2], a half-maximal effect (EC50) was put at 11.7 µM and the fold induction at 10 µM worked out at 2.2.
The matching figures for `N#Cc1ccc(C(=O)N2CCC(NS(=O)(=O)c3cc(S(=O)(=O)c4ccccc4)ccc3Cl)CC2)cc1` [Example 657, 2-chloro-N-[1-(4-cyanobenzoyl)piperidin-4-yl]-5-(phenylsulfonyl)benzenesulfonamide]: 2.4 µM, 9.03 µM and 2.4.
In the same order, the values of `O=C(c1ccc(C(F)(F)F)cc1)N1CCC(NS(=O)(=O)c2cc(S(=O)(=O)c3ccccc3)ccc2Cl)CC1` [Example 658, 2-chloro-5-(phenylsulfonyl)-N-{1-[4-(trifluoromethyl)benzoyl]piperidin-4-yl}benzenesulfonamide] are 0.8 µM, 6.35 µM and 2.6.
In the same order, the values of `O=S(=O)(NCCc1cccnc1)c1cc(S(=O)(=O)c2ccccc2)ccc1OC(F)(F)F` [Example 660, 5-(phenylsulfonyl)-N-(2-pyridin-3-ylethyl)-2-(trifluoromethoxy)benzenesulfonamide] are 2.4 µM, 3.72 µM and 4.9.
In the case of `O=S(=O)(NC1CCOCC1)c1cc(S(=O)(=O)c2ccccc2)ccc1OC(F)(F)F` [Example 662, 5-(phenylsulfonyl)-N-(tetrahydro-2H-pyran-4-yl)-2-(trifluoromethoxy)benzenesulfonamide], at SFRP-1 [1], the IC50 turned out to be 4 µM. At SFRP-1 [2], the half-maximal effective concentration (EC50) worked out at 17.6 µM and the fold induction at 10 µM turned out to be 3.3.
With `CC(C)c1ccc(S(=O)(=O)c2ccc(F)cc2)cc1S(=O)(=O)NCCC#N` [Example 664, N-(2-cyanoethyl)-5-[(4-fluorophenyl)sulfonyl]-2-isopropylbenzenesulfonamide], at SFRP-1 [1], the IC50 is 1.7 µM. For the same compound, at SFRP-1 [2], the midpoint of the response, the EC50, lay at 2.99 µM and the fold induction at 10 µM is 3.9.
The matching figures for `CC(C)c1ccc(S(=O)(=O)c2ccccc2)cc1S(=O)(=O)NC1CCOCC1` [Example 670, 2-isopropyl-5-(phenylsulfonyl)-N-(tetrahydro-2H-pyran-4-yl)benzenesulfonamide]: 0.8 µM, 2.83 µM and 3.2.
The matching figures for `CC(C)c1ccc(S(=O)(=O)c2ccccc2)cc1S(=O)(=O)NCCc1ccccn1` [Example 671, 2-isopropyl-5-(phenylsulfonyl)-N-(2-pyridin-2-ylethyl)benzenesulfonamide]: 0.4 µM, 1.58 µM and 3.6.
